Structures can show the parent of a compound that is named as a salt. Where two headings read alike, the source gives them in different places.
Columns and labels:
Type in all cases: cell-based
[1] = biological target: EGFR(D770_N771insSVD) expressing Ba/F3 stable cell line (Homo sapiens, UniProt P00533, DUP768-770, cells depend on it); assay: Cellular proliferation (Alamar Blue) assay, EGFR D770_N771insSVD Ba/F3; conditions: 72 hr, read-out: D770 IC50
Procedure, shortened: (§1)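 Seventy-two-hour compound exposure (3-fold series, final 10–0.0005 μM) of mutant EGFR/HER2 Ba/F3 cells plated at 15,000/well in RPMI with 10% FBS. Alamar Blue added for 3 h at 37 °C as proliferation read-out.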

[2] = biological target: EGFR (A767_dupASV) expressing Ba/F3 stable cell line (Homo sapiens, UniProt P00533, DUP767-769, cells depend on it); assay: Cellular proliferation (Alamar Blue) assay, EGFR A767_dupASV Ba/F3; conditions: 72 hr, read-out: A767 IC50
Procedure, shortened: as §1

A431 cells = assay: Cellular proliferation (Alamar Blue) assay, A431
[3] = biological target: EGFR (H773insNPH) expressing Ba/F3 stable cell line (Homo sapiens, UniProt P00533, DUP771-773, cells depend on it); assay: Cellular proliferation (Alamar Blue) assay, EGFR H773insNPH Ba/F3; conditions: 72 hr, read-out: NPH IC50
Procedure, shortened: as §1

[4] = biological target: HER2 (A775_G776insYVMA) expressing Ba/F3 stable cell line (Homo sapiens, UniProt P04626, DUP772-775, cells depend on it); assay: Cellular proliferation (Alamar Blue) assay, HER2 A775_G776insYVMA Ba/F3; conditions: 72 hr, read-out: YVMA IC50
Procedure, shortened: as §1

[5] = Homo sapiens, A-431; A431 cells, Alamar Blue, 72 hr; read-out: A431 IC50

Sequence of EGFR (H773insNPH) expressing Ba/F3 stable cell line (P00533 with tags, fused parts or gaps DUP771-773): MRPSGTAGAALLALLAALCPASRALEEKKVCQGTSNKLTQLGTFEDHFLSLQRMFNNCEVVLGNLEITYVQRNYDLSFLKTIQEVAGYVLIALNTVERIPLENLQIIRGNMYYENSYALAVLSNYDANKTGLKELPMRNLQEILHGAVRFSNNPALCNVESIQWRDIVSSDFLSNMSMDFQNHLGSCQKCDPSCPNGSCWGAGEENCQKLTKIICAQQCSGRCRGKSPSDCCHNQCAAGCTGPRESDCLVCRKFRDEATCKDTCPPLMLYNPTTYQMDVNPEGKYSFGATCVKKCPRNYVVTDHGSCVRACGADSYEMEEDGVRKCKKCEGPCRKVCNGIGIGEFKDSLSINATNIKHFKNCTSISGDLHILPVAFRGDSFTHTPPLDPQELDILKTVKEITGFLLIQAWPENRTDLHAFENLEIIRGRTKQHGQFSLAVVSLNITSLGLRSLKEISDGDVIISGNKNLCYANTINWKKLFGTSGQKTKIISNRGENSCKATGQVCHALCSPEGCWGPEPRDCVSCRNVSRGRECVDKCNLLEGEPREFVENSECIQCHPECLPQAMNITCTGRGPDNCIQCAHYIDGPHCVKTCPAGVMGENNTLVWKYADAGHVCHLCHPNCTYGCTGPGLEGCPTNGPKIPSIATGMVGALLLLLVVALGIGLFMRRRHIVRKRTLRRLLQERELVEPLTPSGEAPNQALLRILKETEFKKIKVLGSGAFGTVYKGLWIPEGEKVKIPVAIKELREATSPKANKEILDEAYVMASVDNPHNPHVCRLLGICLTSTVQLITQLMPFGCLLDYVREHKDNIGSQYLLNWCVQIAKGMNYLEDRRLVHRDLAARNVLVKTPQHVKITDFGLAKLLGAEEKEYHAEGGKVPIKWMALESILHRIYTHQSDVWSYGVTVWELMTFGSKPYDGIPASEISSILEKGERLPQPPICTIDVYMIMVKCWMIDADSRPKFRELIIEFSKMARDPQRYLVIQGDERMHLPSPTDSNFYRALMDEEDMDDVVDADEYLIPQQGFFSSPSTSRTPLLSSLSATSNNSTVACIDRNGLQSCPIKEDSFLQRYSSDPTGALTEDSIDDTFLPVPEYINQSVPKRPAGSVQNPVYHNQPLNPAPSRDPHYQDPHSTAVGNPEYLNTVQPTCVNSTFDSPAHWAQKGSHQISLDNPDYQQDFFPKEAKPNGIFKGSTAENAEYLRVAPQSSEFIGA
Sequence of EGFR(D770_N771insSVD) expressing Ba/F3 stable cell line (P00533 with tags, fused parts or gaps DUP768-770): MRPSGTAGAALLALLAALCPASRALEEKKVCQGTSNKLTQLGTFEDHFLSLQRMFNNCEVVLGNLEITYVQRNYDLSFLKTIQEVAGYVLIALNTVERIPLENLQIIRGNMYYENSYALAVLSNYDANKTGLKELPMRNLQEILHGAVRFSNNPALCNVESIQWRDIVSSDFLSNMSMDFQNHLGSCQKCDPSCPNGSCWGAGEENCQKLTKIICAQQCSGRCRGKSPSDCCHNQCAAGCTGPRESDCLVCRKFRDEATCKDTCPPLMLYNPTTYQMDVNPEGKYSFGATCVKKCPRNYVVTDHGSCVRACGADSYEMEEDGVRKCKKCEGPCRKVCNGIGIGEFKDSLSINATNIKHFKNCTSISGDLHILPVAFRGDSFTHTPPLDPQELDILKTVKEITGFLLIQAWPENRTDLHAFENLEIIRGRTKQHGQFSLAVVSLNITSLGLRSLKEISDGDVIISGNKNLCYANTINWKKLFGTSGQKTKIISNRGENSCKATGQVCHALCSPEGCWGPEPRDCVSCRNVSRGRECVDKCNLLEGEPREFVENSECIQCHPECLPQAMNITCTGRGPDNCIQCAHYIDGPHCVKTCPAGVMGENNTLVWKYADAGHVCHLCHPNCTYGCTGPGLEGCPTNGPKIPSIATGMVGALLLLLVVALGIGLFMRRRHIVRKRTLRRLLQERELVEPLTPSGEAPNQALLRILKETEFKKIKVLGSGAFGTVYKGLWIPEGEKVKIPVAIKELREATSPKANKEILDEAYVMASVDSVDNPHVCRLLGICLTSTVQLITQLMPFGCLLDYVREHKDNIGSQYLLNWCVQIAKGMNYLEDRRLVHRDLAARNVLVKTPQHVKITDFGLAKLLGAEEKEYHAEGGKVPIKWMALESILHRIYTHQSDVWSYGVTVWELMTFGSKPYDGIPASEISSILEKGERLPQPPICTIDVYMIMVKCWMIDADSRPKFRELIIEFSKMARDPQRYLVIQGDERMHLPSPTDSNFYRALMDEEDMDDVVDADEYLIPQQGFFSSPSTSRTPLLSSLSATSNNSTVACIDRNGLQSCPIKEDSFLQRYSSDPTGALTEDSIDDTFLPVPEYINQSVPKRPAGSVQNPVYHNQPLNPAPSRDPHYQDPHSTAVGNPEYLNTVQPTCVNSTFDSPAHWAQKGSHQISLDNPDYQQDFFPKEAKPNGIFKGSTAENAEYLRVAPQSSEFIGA
Sequence of EGFR (A767_dupASV) expressing Ba/F3 stable cell line (P00533 with tags, fused parts or gaps DUP767-769): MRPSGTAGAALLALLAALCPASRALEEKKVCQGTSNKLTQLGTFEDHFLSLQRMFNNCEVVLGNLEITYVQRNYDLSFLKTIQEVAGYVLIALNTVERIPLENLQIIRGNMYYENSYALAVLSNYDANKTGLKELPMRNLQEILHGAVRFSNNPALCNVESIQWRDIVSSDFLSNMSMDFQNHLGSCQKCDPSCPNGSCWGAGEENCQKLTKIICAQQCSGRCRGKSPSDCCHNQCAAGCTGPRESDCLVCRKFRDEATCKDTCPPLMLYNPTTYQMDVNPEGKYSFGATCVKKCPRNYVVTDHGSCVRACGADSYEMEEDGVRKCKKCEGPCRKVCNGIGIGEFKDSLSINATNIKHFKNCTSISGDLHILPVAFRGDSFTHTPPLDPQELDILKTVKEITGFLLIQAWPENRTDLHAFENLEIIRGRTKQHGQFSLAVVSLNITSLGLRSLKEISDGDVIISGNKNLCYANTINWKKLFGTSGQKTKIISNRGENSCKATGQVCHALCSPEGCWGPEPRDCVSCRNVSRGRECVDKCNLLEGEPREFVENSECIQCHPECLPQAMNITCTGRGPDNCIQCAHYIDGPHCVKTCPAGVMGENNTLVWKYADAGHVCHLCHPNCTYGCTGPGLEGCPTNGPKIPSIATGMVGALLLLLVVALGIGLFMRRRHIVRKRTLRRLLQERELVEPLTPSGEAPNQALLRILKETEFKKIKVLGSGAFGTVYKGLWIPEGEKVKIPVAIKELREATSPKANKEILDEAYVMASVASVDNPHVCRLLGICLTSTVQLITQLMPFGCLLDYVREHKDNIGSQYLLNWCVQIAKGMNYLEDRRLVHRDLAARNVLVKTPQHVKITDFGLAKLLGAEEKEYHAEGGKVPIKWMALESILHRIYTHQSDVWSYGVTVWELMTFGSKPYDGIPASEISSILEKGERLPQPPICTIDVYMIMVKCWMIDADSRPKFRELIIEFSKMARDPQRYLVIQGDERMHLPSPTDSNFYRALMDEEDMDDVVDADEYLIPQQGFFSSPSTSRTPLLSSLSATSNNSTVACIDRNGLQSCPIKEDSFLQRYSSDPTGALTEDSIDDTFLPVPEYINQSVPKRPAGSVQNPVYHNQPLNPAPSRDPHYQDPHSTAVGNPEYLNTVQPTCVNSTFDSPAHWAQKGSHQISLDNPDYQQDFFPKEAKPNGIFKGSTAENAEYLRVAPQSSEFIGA
Sequence of HER2 (A775_G776insYVMA) expressing Ba/F3 stable cell line (P04626 with tags, fused parts or gaps DUP772-775): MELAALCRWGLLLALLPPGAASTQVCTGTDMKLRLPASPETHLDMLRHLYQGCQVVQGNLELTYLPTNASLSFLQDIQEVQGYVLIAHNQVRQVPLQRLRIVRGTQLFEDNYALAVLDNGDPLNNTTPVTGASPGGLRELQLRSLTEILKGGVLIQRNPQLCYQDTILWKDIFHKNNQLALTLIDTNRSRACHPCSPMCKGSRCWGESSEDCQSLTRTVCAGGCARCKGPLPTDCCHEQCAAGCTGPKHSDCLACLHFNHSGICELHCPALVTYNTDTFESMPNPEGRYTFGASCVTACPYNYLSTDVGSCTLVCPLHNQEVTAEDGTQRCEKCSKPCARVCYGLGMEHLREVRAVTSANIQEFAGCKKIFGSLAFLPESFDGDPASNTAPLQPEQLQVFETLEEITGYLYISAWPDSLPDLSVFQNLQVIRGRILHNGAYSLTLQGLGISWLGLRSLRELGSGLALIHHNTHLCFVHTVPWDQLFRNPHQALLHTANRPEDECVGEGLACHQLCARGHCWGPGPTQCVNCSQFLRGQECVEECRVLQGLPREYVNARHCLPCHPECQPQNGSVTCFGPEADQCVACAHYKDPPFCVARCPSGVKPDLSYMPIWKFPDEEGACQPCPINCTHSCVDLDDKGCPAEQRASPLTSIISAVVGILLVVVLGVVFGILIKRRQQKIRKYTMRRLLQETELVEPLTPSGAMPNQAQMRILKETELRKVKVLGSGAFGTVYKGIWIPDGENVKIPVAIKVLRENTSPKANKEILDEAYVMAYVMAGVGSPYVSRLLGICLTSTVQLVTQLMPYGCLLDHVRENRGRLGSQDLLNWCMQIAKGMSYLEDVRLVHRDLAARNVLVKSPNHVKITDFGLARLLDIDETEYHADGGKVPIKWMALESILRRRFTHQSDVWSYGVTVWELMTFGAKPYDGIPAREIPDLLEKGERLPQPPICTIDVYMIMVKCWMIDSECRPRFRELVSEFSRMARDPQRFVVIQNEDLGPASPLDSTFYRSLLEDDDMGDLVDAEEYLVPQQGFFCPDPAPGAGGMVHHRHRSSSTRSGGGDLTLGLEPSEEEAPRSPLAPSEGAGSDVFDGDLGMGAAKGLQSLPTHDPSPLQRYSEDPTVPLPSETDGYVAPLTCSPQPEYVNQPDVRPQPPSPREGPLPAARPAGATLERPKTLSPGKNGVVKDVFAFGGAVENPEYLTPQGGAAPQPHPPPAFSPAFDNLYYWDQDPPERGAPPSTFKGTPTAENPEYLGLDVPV

GI50 [1] [µM] | GI50 [2] [µM] | IC50 (A431 cells; [5]) [µM] | GI50 [3] [µM] | GI50 [4] [µM] | IC50 (A431 cells; Homo sapiens, A-431; A431 cells, 72 hr, Alamar Blue; read-out: A431 IC50) [µM] | Structure (SMILES)
0.035 | 0.036 | 0.077 | 0.088 | 0.123 | – | C=CC(=O)Nc1ccc(F)c(Nc2nc(Nc3cnn(C)c3)ncc2-c2ccc(OC(F)F)nc2)c1 [Compound 70, N-(3-((5-(6-(difluoromethoxy)pyridin-3-yl)-2-((1-methyl-1H-pyrazol-4-yl)amino)pyrimidin-4-yl)amino)-4-fluorophenyl)acrylamide]
0.011 | 0.014 | 0.065 | 0.021 | 0.019 | – | C=CC(=O)Nc1ccc(F)c(Nc2nc(Nc3cnn(C)c3)ncc2-c2cncc(F)c2)c1 [Compound 69, N-(4-fluoro-3-((5-(5-fluoropyridin-3-yl)-2-((1-methyl-1H-pyrazol-4-yl)amino)pyrimidin-4-yl)amino)phenyl)acrylamide]
0.105 | 0.101 | 0.466 | 0.068 | 0.1 | – | C=CC(=O)Nc1ccc(F)c(Nc2nc(Nc3cnn(C)c3)ncc2-c2cncnc2)c1 [Compound 147, N-(4-fluoro-3-((2-((1-methyl-1H-pyrazol-4-yl)amino)-[5,5′-bipyrimidin]-4-yl)amino)phenyl)acrylamide trifluoroacetate]
0.157 | 0.287 | 0.493 | 0.281 | 0.461 | – | C=CC(=O)Nc1ccc(F)c(Nc2nc(Nc3cnn(C)c3)ncc2-c2ccc(N(C)C)cc2)c1 [Compound 103, N-(3-((5-(4-(dimethylamino)phenyl)-2-((1-methyl-1H-pyrazol-4-yl)amino)pyrimidin-4-yl)amino)-4-fluorophenyl)acrylamide]
0.107 | 0.104 | 1.12 | 0.101 | 0.115 | – | C=CC(=O)Nc1cccc(Oc2nc(Nc3cnn(C)c3)ncc2-c2cncc(C(F)(F)F)c2)c1 [Compound 104, N-(3-((2-((1-methyl-1H-pyrazol-4-yl)amino)-5-(5-(trifluoromethyl)pyridin-3-yl)pyrimidin-4-yl)oxy)phenyl)acrylamide]
0.084 | 0.093 | > 10 | 0.053 | 0.266 | – | C=CC(=O)Nc1ccc(F)c(Nc2nc(Nc3cnn(CCO)c3)ncc2-c2ccc(C(F)(F)F)cc2)c1 [Compound 78, N-(4-fluoro-3-((2-((1-(2-hydroxyethyl)-1H-pyrazol-4-yl)amino)-5-(4-(trifluoromethyl)phenyl)pyrimidin-4-yl)amino)phenyl)acrylamide]
0.016 | 0.035 | 0.094 | 0.025 | 0.038 | – | C=CC(=O)Nc1ccc(F)c(Nc2nc(Nc3cnn(C)c3)ncc2-c2ccc(C(F)F)nc2)c1 [Compound 106, N-(3-((5-(6-(difluoromethyl)pyridin-3-yl)-2-((1-methyl-1H-pyrazol-4-yl)amino)pyrimidin-4-yl)amino)-4-fluorophenyl)acrylamide]
0.039 | 0.045 | 0.252 | 0.1 | 0.113 | – | C=CC(=O)Nc1cccc(Nc2nc(Nc3cnn(C)c3)ncc2-c2ccc(C(F)(F)F)nc2)c1 [Compound 73, N-(3-((2-((1-methyl-1H-pyrazol-4-yl)amino)-5-(6-(trifluoromethyl)pyridin-3-yl)pyrimidin-4-yl)amino)phenyl)acrylamide]
0.187 | 0.428 | – | 0.385 | 0.537 | 0.262 | C=CC(=O)Nc1cccc(Oc2nc(Nc3cn(C)nc3Cl)ncc2-c2ccc(C(F)(F)F)cc2)c1 [Compound 233, N-[3-({2-[(3-chloro-1-methyl-1H-pyrazol-4-yl)amino]-5-[4-(trifluoromethyl)phenyl]pyrimidin-4-yl}oxy)phenyl] prop-2-enamide]
0.105 | 0.238 | 0.027 | 0.149 | 0.134 | – | C=CC(=O)Nc1ccc(F)c(Nc2nc(Nc3ccc(CN(C)C)cc3)ncc2-c2ccc(C(F)(F)F)cc2)c1 [Compound 45, N-(3-((2-((4-((dimethylamino)methyl)phenyl)amino)-5-(4-(trifluoromethyl)phenyl)pyrimidin-4-yl)amino)-4-fluorophenyl)acrylamide trifluoroacetate]
0.035 | 0.074 | 0.037 | 0.043 | 0.1 | – | C=CC(=O)Nc1ccc(F)c(Nc2nc(Nc3cnn(C)c3)ncc2-c2ccc(Br)cc2)c1 [Compound 75, N-(3-((5-(4-bromophenyl)-2-((1-methyl-1H-pyrazol-4-yl)amino)pyrimidin-4-yl)amino)-4-fluorophenyl)acrylamide trifluoroacetate]
0.044 | 0.071 | 1.94 | 0.082 | 0.177 | – | C=CC(=O)Nc1ccc(F)c(Nc2nc(Nc3cnn(C)c3)ncc2-c2ccc(C(F)(F)F)nc2)c1 [Compound 57, N-(4-fluoro-3-((2-((1-methyl-1H-pyrazol-4-yl)amino)-5-(6-(trifluoromethyl)pyridin-3-yl)pyrimidin-4-yl)amino)phenyl)acrylamide]
0.103 | 0.237 | 0.32 | 0.103 | 0.358 | – | C=CC(=O)Nc1ccc(F)c(Nc2nc(Nc3cnn(C)c3)ncc2-c2ccccc2F)c1 [Compound 90, N-(4-fluoro-3-((5-(2-fluorophenyl)-2-((1-methyl-1H-pyrazol-4-yl)amino)pyrimidin-4-yl)amino)phenyl)acrylamide]
0.062 | 0.108 | 0.95 | 0.091 | 0.479 | – | C=CC(=O)Nc1ccc(F)c(Nc2nc(Nc3cnn(C)c3)ncc2-c2ccc(OC)cc2)c1 [Compound 91, N-(4-fluoro-3-((5-(4-methoxyphenyl)-2-((1-methyl-1H-pyrazol-4-yl)amino)pyrimidin-4-yl)amino)phenyl)acrylamide]
0.114 | 0.09 | 0.17 | 0.106 | 0.175 | – | C=CC(=O)Nc1cccc(Oc2nc(Nc3cnn(C)c3)ncc2-c2ccc(C)nc2)c1 [Compound 186, N-(3-((2-((1-methyl-1H-pyrazol-4-yl)amino)-5-(6-methylpyridin-3-yl)pyrimidin-4-yl)oxy)phenyl)acrylamide]
0.116 | 0.125 | > 10 | 0.148 | 0.69 | – | C=CC(=O)Nc1ccc(F)c(Nc2nc(Nc3cnn(C4COC4)c3)ncc2-c2ccc(C(F)(F)F)cc2)c1 [Compound 139, N-(4-fluoro-3-((2-((1-(oxetan-3-yl)-1H-pyrazol-4-yl)amino)-5-(4-(trifluoromethyl)phenyl)pyrimidin-4-yl)amino)phenyl)acrylamide]
0.048 | 0.041 | 0.027 | 0.103 | 0.138 | – | C=CC(=O)Nc1cccc(Nc2nc(Nc3cnn(C)c3)ncc2-c2ccc(C(F)(F)F)cc2)c1 [Compound 111, N-(3-((2-((1-methyl-1H-pyrazol-4-yl)amino)-5-(4-(trifluoromethyl)phenyl)pyrimidin-4-yl)amino)phenyl)acrylamide]
0.035 | 0.048 | 0.929 | 0.049 | 0.198 | – | C=CC(=O)Nc1ccc(F)c(Nc2nc(Nc3cnn(C)c3)ncc2-c2cccc(F)c2)c1 [Compound 88, N-(4-fluoro-3-((5-(3-fluorophenyl)-2-((1-methyl-1H-pyrazol-4-yl)amino)pyrimidin-4-yl)amino)phenyl)acrylamide]
0.06 | 0.102 | 1.28 | 0.116 | 0.344 | – | C=CC(=O)Nc1ccc(F)c(Nc2nc(Nc3cnn(C)c3)ncc2-c2ccc(F)cc2)c1 [Compound 63, N-(4-fluoro-3-((5-(4-fluorophenyl)-2-((1-methyl-1H-pyrazol-4-yl)amino)pyrimidin-4-yl)amino)phenyl)acrylamide]
